Laboratory results from ChEMBL document CHEMBL3102756, “Synthesis and biological evaluation of a series of aminoalkyl-tetralones and tetralols as dual dopamine/serotonin ligands” (Eur J Med Chem, 2014).

How the values were obtained:
[1] = biological target: T1, 5-hydroxytryptamine receptor 2A (Homo sapiens, UniProt P28223); experiment: Displacement of [3H]ketanserin from human 5-HT2A receptor
[2] = biological target: T1, 5-hydroxytryptamine receptor 2A; conditions: CHO
[3] = biological target: D(2) dopamine receptor (Homo sapiens) (UniProt P14416); conditions: CHO
Description: Competitive antagonist activity at human D2 receptor expressed in CHO cells assessed as inhibition of cAMP release after 30 mins by HTRF assay

[4] = biological target: T1, 5-hydroxytryptamine receptor 2A; experiment: Binding affinity for 5-HT2A receptor (unknown origin)

Sequence of D(2) dopamine receptor (Homo sapiens) (P14416 whole entry): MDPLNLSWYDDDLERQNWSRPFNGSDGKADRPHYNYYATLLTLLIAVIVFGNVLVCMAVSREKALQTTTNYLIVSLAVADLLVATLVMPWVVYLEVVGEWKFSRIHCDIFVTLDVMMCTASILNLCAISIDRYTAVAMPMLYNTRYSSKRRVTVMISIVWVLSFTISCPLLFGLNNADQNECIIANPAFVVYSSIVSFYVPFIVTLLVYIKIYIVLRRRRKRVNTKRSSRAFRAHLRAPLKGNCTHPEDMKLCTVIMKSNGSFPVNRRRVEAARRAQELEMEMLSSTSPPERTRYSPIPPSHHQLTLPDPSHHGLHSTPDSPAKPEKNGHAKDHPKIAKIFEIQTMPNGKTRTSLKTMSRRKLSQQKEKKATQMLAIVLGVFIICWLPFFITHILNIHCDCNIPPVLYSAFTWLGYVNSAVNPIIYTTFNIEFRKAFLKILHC
T1 sequence (P28223 whole entry): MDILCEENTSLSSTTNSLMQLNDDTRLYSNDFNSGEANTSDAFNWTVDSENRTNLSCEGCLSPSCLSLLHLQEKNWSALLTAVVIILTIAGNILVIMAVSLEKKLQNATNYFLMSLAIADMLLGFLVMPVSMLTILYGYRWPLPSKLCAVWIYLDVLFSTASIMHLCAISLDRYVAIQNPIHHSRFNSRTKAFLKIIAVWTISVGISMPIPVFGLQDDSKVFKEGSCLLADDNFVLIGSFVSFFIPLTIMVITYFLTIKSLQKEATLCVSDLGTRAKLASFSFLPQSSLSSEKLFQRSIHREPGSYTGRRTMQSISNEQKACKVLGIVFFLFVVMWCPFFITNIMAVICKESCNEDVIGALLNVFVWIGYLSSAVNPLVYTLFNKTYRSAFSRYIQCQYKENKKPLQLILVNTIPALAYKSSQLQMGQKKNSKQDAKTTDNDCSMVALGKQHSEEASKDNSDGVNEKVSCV

Structure (SMILES) | Ki [1] [nM] | pKb [2] | pKb [3] | Ki [4] [nM]
CC(=O)c1ccc2c(c1)CC(CN1CCC(C(=O)c3ccc(F)cc3)CC1)CC2=O (stereo unspecified) | 63.1 | – | – | –
COc1ccccc1N1CCN(CCC2CCc3ccc(N)cc3C2=O)CC1 (stereo unspecified) | 42.7 | – | – | –
COc1ccccc1N1CCN(CCC2CCc3ccc([N+](=O)[O-])cc3C2=O)CC1 (stereo unspecified) | 794 | – | – | –
CC(=O)c1ccc2c(c1)CC(CN1CCC(c3noc4cc(F)ccc34)CC1)CC2=O (stereo unspecified) | 31.6 | – | – | –
COc1ccccc1N1CCN(CCC2CCc3ccc(N)cc3C2O)CC1 (stereo unspecified) | 158 | – | – | –
O=C1CC(CN2CCC(c3noc4cc(F)ccc34)CC2)Cc2ccccc21 (stereo unspecified) | – | – | – | 2.75
Nc1ccc2c(c1)C(=O)C(CCN1CCC(C(=O)c3ccc(F)cc3O)CC1)CC2 (stereo unspecified) | 23.4 | – | – | –
O=C1CC(CN2CCC(C(=O)c3ccc(F)cc3)CC2)Cc2cc(-c3ccccc3)ccc21 (stereo unspecified) | 631 | – | – | –
COc1ccccc1N1CCN(CCC2CCc3ccc([N+](=O)[O-])cc3C2O)CC1 (stereo unspecified) | 513 | – | – | –
O=C1c2cc([N+](=O)[O-])ccc2CCC1CCN1CCC(c2noc3cc(F)ccc23)CC1 (stereo unspecified) | 19.1 | – | – | –

Now from value to compound:

Ki [1] [nM] | pKb [2] | pKb [3] | Ki [4] [nM] | Structure (SMILES)
11 | – | – | – | O=[N+]([O-])c1ccc2c(c1)C(O)C(CCN1CCC(c3noc4cc(F)ccc34)CC1)CC2 (stereo unspecified)
15.8 | 7.84 | 7.55 | – | O=C1CC(CN2CCC(c3noc4cc(F)ccc34)CC2)Cc2cc(-c3ccccc3)ccc21 (stereo unspecified)
4.47 | 7.82 | 6.32 | – | Nc1ccc2c(c1)C(O)C(CCN1CCC(C(=O)c3ccc(F)cc3O)CC1)CC2 (stereo unspecified)
6.61 | – | – | – | Nc1ccc2c(c1)C(O)C(CCN1CCC(c3noc4cc(F)ccc34)CC1)CC2 (stereo unspecified)
5.01 | 8.76 | 7.53 | – | Nc1ccc2c(c1)C(=O)C(CCN1CCC(c3noc4cc(F)ccc34)CC1)CC2 (stereo unspecified)
